Experimental data published in patent US8962842B2, “2-pyridone antimicrobial compositions” (priority 2010, dated 2015).
Where two headings read alike, the source gives them in different places.

How the values were obtained:
[1] = test system: Enterococcus faecium (3 strains); assay: MIC range, broader panel of Quotient Bioresearch strains (Table 3)
[2] = test system: Acinetobacter baumannii, quinolone-resistant strains (Quotient Bioresearch catalogue); assay: MIC against pathogens resistant against quinolones (Table 5); format: cell-based; conditions: Acinetobacter baumannii, GN54
[3] = test system: Streptococcus pyogenes (4 strains); assay: MIC range, broader panel of Quotient Bioresearch strains (Table 3)
[4] = biological target: bacterial topoisomerase IV (Escherichia coli, UniProt P0AFI2+P20083); assay: Inhibition of topoisomerases activity in vitro, Topogen protocol TG1007 (Table 7); format: biochemical
Sequence of bacterial topoisomerase IV (P20083 whole entry): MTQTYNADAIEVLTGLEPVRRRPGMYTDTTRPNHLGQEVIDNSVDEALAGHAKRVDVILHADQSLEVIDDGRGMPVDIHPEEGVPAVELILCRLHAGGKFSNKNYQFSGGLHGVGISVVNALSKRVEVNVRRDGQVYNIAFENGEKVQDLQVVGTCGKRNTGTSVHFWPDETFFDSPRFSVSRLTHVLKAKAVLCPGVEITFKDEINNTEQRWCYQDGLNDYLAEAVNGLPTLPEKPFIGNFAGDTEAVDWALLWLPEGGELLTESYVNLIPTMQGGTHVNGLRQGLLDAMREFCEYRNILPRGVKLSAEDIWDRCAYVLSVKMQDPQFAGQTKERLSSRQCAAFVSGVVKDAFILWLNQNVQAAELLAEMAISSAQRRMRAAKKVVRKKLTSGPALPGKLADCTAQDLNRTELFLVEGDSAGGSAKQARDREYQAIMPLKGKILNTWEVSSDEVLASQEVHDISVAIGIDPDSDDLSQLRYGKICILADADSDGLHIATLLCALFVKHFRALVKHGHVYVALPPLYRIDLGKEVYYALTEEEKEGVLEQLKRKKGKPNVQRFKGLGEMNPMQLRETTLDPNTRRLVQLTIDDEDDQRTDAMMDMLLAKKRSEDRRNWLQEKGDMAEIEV
Sequence of bacterial topoisomerase IV (P0AFI2 whole entry): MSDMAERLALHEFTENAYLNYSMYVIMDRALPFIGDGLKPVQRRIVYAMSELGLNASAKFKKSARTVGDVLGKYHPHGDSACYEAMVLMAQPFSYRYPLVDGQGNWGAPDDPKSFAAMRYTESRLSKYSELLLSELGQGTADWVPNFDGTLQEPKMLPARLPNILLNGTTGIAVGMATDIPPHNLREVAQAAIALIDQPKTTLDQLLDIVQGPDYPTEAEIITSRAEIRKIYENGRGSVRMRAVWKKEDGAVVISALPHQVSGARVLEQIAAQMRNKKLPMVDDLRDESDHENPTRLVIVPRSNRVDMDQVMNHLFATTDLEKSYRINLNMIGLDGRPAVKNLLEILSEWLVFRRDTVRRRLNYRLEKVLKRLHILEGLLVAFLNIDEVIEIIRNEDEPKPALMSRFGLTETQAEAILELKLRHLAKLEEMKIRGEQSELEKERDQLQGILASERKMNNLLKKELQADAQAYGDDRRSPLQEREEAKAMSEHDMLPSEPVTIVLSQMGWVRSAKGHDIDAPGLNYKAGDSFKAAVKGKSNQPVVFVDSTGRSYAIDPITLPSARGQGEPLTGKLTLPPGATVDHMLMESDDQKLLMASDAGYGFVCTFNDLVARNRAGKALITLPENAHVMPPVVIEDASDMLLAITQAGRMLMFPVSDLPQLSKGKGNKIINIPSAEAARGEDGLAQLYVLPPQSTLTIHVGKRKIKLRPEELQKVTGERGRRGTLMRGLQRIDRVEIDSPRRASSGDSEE

[5] = biological target: bacterial gyrase (Escherichia coli, UniProt P0AES4+P0AES6); assay: Inhibition of topoisomerases activity in vitro, Topogen protocol TG1003 (Table 7); format: biochemical
Sequence of bacterial gyrase (P0AES4 whole entry, one chain of several): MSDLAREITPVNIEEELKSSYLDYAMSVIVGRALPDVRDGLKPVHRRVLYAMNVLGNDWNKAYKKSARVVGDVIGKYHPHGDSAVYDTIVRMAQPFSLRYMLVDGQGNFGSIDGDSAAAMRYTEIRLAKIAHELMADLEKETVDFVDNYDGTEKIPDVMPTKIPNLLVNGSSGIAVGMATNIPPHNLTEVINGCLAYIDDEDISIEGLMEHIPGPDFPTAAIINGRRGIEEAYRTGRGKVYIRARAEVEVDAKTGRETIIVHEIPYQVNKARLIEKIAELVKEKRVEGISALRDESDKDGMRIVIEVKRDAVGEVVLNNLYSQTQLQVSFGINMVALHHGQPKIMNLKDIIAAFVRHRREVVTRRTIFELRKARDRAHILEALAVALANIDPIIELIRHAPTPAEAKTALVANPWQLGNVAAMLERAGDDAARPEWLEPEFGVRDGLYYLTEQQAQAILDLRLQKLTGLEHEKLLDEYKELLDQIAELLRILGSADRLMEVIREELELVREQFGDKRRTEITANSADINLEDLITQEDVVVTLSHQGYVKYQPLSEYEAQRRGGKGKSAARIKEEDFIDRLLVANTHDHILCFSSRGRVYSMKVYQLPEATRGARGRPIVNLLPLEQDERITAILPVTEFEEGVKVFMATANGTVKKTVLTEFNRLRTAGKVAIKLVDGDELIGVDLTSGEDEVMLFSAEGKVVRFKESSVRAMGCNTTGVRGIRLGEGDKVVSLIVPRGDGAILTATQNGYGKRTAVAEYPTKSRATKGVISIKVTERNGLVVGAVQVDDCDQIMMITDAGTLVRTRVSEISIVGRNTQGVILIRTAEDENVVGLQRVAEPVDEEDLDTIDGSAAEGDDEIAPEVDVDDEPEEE

[6] = test system: Bacterial strains injected into thigh muscles; format: in vivo, mice; conditions: 30 mg/kg TDS p.o.
[7] = test system: Escherichia coli (6 strains); assay: MIC range, broader panel of Quotient Bioresearch strains (Table 4); format: cell-based
[8] = test system: Streptococcus pneumonia (5 strains); assay: MIC range, broader panel of Quotient Bioresearch strains (Table 3); conditions: Streptococcus pneumoniae
[9] = test system: Haemophilus influenza (5 strains); assay: MIC range, broader panel of Quotient Bioresearch strains (Table 4); format: cell-based, Haemophilus influenzae
[10] = Metabolic stability in liver microsomes +/- S9 fraction (Table 8); format: in vitro ADME; conditions: 1 μM
Procedure: Metabolic stability of a select number of examples was tested in liver microsomes+/−addition of S9 fraction as described by Kuhnz, W. and Gieschen, H. (1998), Drug Metab. Dispos., 1120-1127. Test concentration was 1 μM and HPLC/MS-MS was used for detection.

[11] = test system: Staphylococcus aureus (16 strains); assay: MIC range, broader panel of Quotient Bioresearch strains (Table 3)
[12] = test system: Klebsiella pneumonia (4 strains); assay: MIC range, broader panel of Quotient Bioresearch strains (Table 4); format: cell-based; conditions: Klebsiella pneumoniae
[13] = biological target: T1, human topoisomerase I (Homo sapiens, UniProt P11387); assay: Inhibition of topoisomerases activity in vitro, Topogen protocol TG1015 (Table 7); format: biochemical; conditions: read-out: IC50 hTopo I Assay
T1 construct: purchased Topogen Inc., Port Orange, USA TG1015
T1 sequence (P11387 1-765): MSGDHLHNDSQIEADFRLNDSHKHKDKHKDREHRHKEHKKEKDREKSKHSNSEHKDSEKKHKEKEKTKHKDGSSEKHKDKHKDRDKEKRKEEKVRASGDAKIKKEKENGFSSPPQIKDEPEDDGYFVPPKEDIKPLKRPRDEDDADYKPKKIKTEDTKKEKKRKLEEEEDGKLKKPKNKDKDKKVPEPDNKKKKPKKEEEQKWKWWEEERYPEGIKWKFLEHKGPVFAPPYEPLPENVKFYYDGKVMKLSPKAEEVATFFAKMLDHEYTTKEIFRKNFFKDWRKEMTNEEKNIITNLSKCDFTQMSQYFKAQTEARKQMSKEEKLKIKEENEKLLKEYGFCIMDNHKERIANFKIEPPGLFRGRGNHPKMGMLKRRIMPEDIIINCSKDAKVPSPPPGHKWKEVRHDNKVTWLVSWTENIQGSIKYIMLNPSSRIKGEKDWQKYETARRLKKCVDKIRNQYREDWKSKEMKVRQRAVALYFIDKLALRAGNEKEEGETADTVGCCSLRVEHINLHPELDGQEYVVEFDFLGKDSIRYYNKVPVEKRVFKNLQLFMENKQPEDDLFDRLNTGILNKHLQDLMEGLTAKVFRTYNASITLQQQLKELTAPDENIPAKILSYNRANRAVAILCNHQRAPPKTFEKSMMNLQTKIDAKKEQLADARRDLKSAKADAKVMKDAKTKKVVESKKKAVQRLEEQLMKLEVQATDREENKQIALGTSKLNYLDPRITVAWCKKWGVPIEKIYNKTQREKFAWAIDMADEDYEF

[14] = test system: Pseudomonas aeruginosa (12 strains); assay: MIC range, broader panel of Quotient Bioresearch strains (Table 4); format: cell-based
[15] = test system: Enterococcus faecalis (5 strains); assay: MIC range, broader panel of Quotient Bioresearch strains (Table 3)
[16] = test system: Group C Streptococcus (4 strains); assay: as above
[17] = test system: Burkholderia cepacia (5 strains); assay: MIC range, broader panel of Quotient Bioresearch strains (Table 4); format: cell-based
[18] = physchem; format: physicochemical; conditions: thermodynamic from solid
Procedure: The solutions were incubated at room temperature for 24 hours before quantification by HPLC detection. Aqueous solubility was evaluated in simulated gastric fluid (SGF), simulated intestinal fluid (SIF) and phosphate buffer saline (PBS) pH 7.4. Aqueous solubility is expressed in Table 11 as mean solubility in μM.

Molecule Cc1c(-c2ccc3[nH]ncc3c2)ccn2c(=O)c(C(=O)[O-])cc(C3CC3)c12.[K+] [Example 23 K salt, potassium 1-cyclopropyl-8-(1H-indazol-5-yl)-9-methyl-4-oxo-4H-quinolizine-3-carboxylate] has an MIC ([1]; read-out: MIC Range Low, Enterococcus faecium (3 strains)) of 0.06 mg/L, an MIC50 ([1]; read-out: MIC Range Median, Enterococcus faecium (3 strains)) of 0.25 mg/L and an MIC [2] of 1 mg/L. It also gave an MIC ([3]; read-out: MIC Range High, Streptococcus pyogenes (4 strains)) of 0.03 mg/L, an MIC ([3]; read-out: MIC Range Low, Streptococcus pyogenes (4 strains)) of at most 0.015 mg/L and an MIC50 ([3]; read-out: MIC Range Median, Streptococcus pyogenes (4 strains)) of 0.03 mg/L. For the same molecule, the IC50 [4] was 4.34 µM, the IC50 [5] was at most 1.39 µM and the “Log reduction (LgR) from vehicle control (CFU/g)” value ([6]; E. coli ATCC 25922, mouse thigh) was 2.82. For the same molecule, the “Log reduction (LgR) from vehicle control (CFU/g)” value ([6]; MRSA ATCC 43300, mouse thigh) was 4.66, the MIC ([7]; read-out: MIC Range High, Escherichia coli (6 strains)) was 16 mg/L and the MIC ([7]; read-out: MIC Range Low, Escherichia coli (6 strains)) was at most 0.015 mg/L. The MIC50 ([7]; read-out: MIC Range Median, Escherichia coli (6 strains)) was 4 mg/L, the MIC ([8]; read-out: MIC Range Low, Streptococcus pneumonia (5 strains)) was at most 0.015 mg/L and the MIC50 ([8]; read-out: MIC Range Median, Streptococcus pneumonia (5 strains)) was 0.03 mg/L. The MIC50 ([9]; 16 h, Median of the strain panel) was at most 0.015 mg/L, the MIC ([9]; High of the strain panel, read-out: MIC Range High, Haemophilus influenza (5 strains)) was at most 0.015 mg/L and the MIC ([9]; Low of the strain panel, read-out: MIC Range Low, Haemophilus influenza (5 strains)) was at most 0.015 mg/L. The “Mean Parent Remaining” value ([10]; Liver microsomes + S9, human) was 80%, the “Mean Parent Remaining” value ([10]; Liver microsomes + S9, mouse) was 2% and the “Mean Parent Remaining” value ([10]; Liver microsomes, human) was 67%. For the same molecule, the “Mean Parent Remaining” value ([10]; Liver microsomes, mouse) was 2%, the MIC ([11]; read-out: MIC Range High, Staphylococcus aureus (16 strains)) was 0.12 mg/L and the MIC50 ([11]; read-out: MIC Range Median, Staphylococcus aureus (16 strains)) was 0.03 mg/L. For the same molecule, the MIC ([12]; read-out: MIC Range High, Klebsiella pneumonia (4 strains)) was 16 mg/L, the MIC ([12]; read-out: MIC Range Low, Klebsiella pneumonia (4 strains)) was 0.06 mg/L and the MIC50 ([12]; read-out: MIC Range Median, Klebsiella pneumonia (4 strains)) was 5 mg/L. The IC50 [13] was over 140 µM, the MIC ([14]; read-out: MIC Range High, Pseudomonas aeruginosa (12 strains)) was 16 mg/L and the MIC ([14]; read-out: MIC Range Low, Pseudomonas aeruginosa (12 strains)) was 0.25 mg/L. For the same molecule, the MIC50 ([14]; read-out: MIC Range Median, Pseudomonas aeruginosa (12 strains)) was 2 mg/L, the MIC ([15]; read-out: MIC Range Low, Enterococcus faecalis (5 strains)) was at most 0.015 mg/L and the MIC50 ([15]; read-out: MIC Range Median, Enterococcus faecalis (5 strains)) was at most 0.015 mg/L. It also gave an MIC ([16]; read-out: MIC Range High, Group C Streptococcus (4 strains)) of 0.03 mg/L, an MIC ([16]; read-out: MIC Range Low, Group C Streptococcus (4 strains)) of at most 0.015 mg/L and an MIC50 ([16]; read-out: MIC Range Median, Group C Streptococcus (4 strains)) of at most 0.015 mg/L. For the same molecule, the MIC ([17]; read-out: MIC Range High, Burkholderia cepacia (5 strains)) was 0.25 mg/L, the MIC ([17]; read-out: MIC Range Low, Burkholderia cepacia (5 strains)) was at most 0.015 mg/L and the MIC50 ([17]; read-out: MIC Range Median, Burkholderia cepacia (5 strains)) was 0.06 mg/L. The solubility at 24 h ([18]; fassgf or other biorelevant) was 105 µM, the solubility at 24 h ([18]; pH 7.4, aqueous buffer) was 37 µM and the solubility at 24 h ([18]; simulated gastric fluid) was 8 µM.
